Two compounds from patent US20240277730A1, “SUPPRESSION OF COVID-19 REPLICATION BY COVID-19 ENTRY INHIBITORS” (Board of Regents of the University of Nebraska, priority 2021, published 2024) can be followed below.

By IC50 is commonly meant the concentration that inhibits the measured activity by half.

Assay [1] concerns SARS-COV-2 Scotland variant (linage: B.1.222). The assay is described as follows: microbe, parasite or virus in culture. The class given is cell-based. The following applies: Severe acute respiratory syndrome coronavirus 2, Calu-3.
Assay [2] deals with SARS-COV-2 South Africa variant (linage: B.1.351). The assay can be described thus: microbe, parasite or virus in culture. To be noted: Severe acute respiratory syndrome coronavirus 2, Calu-3; read-out: IC50, South African (B.1.351) variant. It counts as cell-based.

Take `CN1C(=O)c2ccccc2[S+]([O-])c2cc([N+](=O)[O-])ccc2S1(=O)=O` (stereo not shown) [formula (Ia), 6-methyl-2-nitrodibenzo[d,g]-[1,6,2]dithiazocin-7(6H)-one 5,5, 12-trioxide]: the IC50 in assay [1] is 2.64 µM; in assay [2], 9.27 µM.

As to `O=C1Nc2cc(C(F)(F)F)ccc2Oc2ccsc21` [formula (IIa), 7-(trifluoromethyl)benzo[b]-thieno[2,3-f][1,4]oxazepin-10(9H)-one], the IC50 in assay [1] was determined as 1.39 µM; in assay [2] it was 3 µM.
